# Source: patent publication US20070249725A1, “Pharmaceutical formulations of sympathetic antagonist for the treatment of chronic muscle pain” (priority 2006, published 2007)
# Counter-ions that a name gives are not always drawn.
# Columns and labels:
# [1] = Multicenter placebo-controlled dose response study of intramuscular PBZ: safety and tolerance (Example II); assay type: in vivo, human; conditions: most frequent adverse event
# [2] = cited from earlier work
# [3] = system: active trigger points; experiment: Multicenter, randomized, placebo-controlled, double-blind dose response study of intramuscular PBZ: efficacy (Example II); assay type: in vivo, human
# Description: This was a multicenter, randomized, placebo-controlled, double-blind, dose response study of intramuscular phenoxybenzamine hydrochloride (PBZ) versus vehicle and saline placebos. Phenoxybenzamine formulation known in the art (propylene glycol and alcohol) and diluted in saline at the time of injection were evaluated. […] Patients with pain in the most commonly affected regions, the upper and lower back, were studied. Patients enrolled in this study were male or female with 4 months to 8 years of myofascial pain syndrome with identifiable active trigger points. Patients were required to have had EMG documented triggers points and meet the criteria of <10 uV in the adjacent muscle site and have a minimum of a 2:1 ratio of trigger point amplitude: adjacent amplitude. Attempts were made to obtain maximum amplitude in the trigger point.
# The primary objectives of this study were to evaluate the safety, tolerance, and efficacy of 4 doses (0.1, 0.3, 1.0, or 2.4 mg) of phenoxybenzamine per intramuscular injection site. The vehicle placebo group received vehicle in a concentration equivalent to the active doses. A second placebo was saline. All injections were of 0.3 ml in volume. Up to 10 trigger points were injected at each treatment session. There were up to 2 treatment sessions up to 10 days apart. The primary efficacy evaluation was made at week 12 of treatment. The Visual Analogue Pain Scale (VAS) was used to assess pain in the affected region before and after treatment. Secondary efficacy assessments included the McGill Pain Questionnaire (MPQ), the Spinal Function Sort (SFS) and the SF-36 Quality of Life questionnaire.
smiles,measurement,setting,value
"CC(COc1ccccc1)N(CCCl)Cc1ccccc1 (centres unmarked) [Phenoxybenzamine Hydrochloride, phenoxybenzamine hydrochloride]","injection site pain, share of all adverse events",[1],77%
same,irritation at the site of the injection,[2],irritation of the muscle at the site of the injection can occur
same,efficacy of formulations in this study,[3]; 1.0 mg and 2.4 mg in propylene glycol and alcohol composition,ineffective
same,difference in percent change from baseline between placebo and active drug,"[3]; 1.0 mg group, not statistically significant",9.9%
same,efficacy compared with placebo,[3]; 2.4 mg group,equivalent to placebo
